How the values were obtained:
[1] = biological target: Serine/threonine-protein kinase 24 (Homo sapiens) (UniProt Q9Y6E0); experiment: Inhibition of MST3 ACT labeling site in human A-375 cells at 5 uM by KiNativ Profiling analysis relative to control; format: cell-based
[2] = biological target: T1, Mitogen-activated protein kinase kinase kinase 2 (Homo sapiens) (UniProt Q9Y2U5); experiment: Inhibition of MAP3K2 Lys2 labeling site in human A-375 cells at 5 uM by KiNativ Profiling analysis relative to control; format: cell-based
T1 sequence (whole entry): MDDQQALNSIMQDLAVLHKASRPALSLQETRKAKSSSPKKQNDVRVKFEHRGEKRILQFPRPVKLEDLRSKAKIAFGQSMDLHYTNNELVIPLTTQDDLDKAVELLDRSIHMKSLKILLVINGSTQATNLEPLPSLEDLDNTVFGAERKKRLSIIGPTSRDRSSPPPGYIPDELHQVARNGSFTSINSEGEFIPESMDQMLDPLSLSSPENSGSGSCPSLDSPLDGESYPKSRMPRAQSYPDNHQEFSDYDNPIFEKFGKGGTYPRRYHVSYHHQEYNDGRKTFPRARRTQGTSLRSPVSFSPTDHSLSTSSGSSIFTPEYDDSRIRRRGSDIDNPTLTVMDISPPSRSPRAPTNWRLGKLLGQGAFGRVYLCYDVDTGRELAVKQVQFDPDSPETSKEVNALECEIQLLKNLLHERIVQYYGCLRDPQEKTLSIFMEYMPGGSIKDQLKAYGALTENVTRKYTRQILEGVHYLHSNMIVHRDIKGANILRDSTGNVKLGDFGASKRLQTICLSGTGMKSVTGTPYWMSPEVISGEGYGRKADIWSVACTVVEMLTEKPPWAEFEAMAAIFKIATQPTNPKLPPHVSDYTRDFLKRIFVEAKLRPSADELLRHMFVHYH

[3] = biological target: Ribosomal protein S6 kinase alpha-1 (Homo sapiens) (UniProt Q15418); experiment: Inhibition of RSK1 Protein Kinase Domain in human A-375 cells at 0.05 uM by KiNativ Profiling analysis relative to control; format: cell-based
Chain of Ribosomal protein S6 kinase alpha-1 (Homo sapiens) (Q15418 whole entry, the tested form may be a part): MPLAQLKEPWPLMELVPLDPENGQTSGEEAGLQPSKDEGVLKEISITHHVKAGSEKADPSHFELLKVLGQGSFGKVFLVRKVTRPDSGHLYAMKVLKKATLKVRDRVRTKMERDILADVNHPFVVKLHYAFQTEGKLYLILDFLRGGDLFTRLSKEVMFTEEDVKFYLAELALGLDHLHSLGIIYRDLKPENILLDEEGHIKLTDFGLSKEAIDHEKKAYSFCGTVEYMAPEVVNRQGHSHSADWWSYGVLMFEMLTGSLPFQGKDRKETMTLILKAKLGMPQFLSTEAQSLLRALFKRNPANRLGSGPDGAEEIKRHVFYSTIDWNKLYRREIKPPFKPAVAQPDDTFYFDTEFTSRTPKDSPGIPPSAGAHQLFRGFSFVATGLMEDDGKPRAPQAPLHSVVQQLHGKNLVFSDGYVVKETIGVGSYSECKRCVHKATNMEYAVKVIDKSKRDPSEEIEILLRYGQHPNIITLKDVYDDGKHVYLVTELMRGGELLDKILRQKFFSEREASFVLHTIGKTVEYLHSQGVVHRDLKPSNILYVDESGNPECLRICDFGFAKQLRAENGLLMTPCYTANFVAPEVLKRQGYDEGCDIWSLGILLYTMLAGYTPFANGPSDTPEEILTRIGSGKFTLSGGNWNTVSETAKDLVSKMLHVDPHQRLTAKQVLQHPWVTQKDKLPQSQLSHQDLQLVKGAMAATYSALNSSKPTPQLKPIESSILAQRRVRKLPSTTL

[4] = biological target: Phosphatidylinositol 4-kinase beta (Homo sapiens) (UniProt Q9UBF8); experiment: Inhibition of PI4KB ATP labeling site harbouring VPHTQAVVLNSKDK in human A-375 cells at 0.5 uM by KiNativ Profiling analysis relative to control; format: cell-based
Chain of Phosphatidylinositol 4-kinase beta (Homo sapiens) (Q9UBF8 2-816 limits assumed): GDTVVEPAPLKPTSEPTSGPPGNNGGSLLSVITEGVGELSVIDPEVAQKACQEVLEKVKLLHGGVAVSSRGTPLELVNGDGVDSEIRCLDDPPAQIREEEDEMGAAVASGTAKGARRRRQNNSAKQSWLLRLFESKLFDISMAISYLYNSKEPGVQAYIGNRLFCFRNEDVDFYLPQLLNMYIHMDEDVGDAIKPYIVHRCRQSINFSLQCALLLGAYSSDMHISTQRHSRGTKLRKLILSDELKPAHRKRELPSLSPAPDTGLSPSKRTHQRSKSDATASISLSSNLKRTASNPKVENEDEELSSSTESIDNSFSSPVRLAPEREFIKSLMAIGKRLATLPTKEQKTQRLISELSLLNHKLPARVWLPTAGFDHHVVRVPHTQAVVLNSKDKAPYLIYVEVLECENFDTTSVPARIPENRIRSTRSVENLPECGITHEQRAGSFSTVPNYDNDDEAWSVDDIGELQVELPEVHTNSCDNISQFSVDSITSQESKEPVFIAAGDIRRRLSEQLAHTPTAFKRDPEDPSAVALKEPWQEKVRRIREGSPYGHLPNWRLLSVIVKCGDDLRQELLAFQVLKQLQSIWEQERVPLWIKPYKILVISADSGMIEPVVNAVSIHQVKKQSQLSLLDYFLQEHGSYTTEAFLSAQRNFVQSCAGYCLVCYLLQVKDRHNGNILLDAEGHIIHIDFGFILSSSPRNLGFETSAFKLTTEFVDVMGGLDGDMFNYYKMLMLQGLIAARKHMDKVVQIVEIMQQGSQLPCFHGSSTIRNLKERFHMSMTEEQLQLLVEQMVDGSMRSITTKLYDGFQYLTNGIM

[5] = biological target: Serine/threonine-protein kinase 38-like (Homo sapiens) (UniProt Q9Y2H1); experiment: Inhibition of NDR2 Lys1 labeling site harbouring DTGHIYAMKILR in human A-375 cells at 0.05 uM by KiNativ Profiling analysis relative to control; format: cell-based
Chain of Serine/threonine-protein kinase 38-like (Homo sapiens) (Q9Y2H1 2-464 limits assumed): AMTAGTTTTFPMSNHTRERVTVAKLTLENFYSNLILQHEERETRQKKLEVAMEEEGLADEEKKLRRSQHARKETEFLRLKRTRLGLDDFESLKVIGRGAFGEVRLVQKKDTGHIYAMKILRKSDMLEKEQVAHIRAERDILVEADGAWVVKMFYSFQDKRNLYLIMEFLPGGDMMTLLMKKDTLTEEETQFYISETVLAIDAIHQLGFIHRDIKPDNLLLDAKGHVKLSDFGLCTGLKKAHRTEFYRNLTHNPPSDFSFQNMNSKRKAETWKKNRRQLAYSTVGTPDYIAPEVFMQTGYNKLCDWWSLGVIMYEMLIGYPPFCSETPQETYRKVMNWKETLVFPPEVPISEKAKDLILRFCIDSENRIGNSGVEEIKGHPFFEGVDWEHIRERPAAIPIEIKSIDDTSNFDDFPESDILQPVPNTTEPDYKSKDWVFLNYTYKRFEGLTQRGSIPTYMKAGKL

[6] = biological target: TRAF2 and NCK-interacting protein kinase (Homo sapiens) (UniProt Q9UKE5); experiment: Inhibition of ZC2/TNIK Lys1 labeling site in human A-375 cells at 0.5 uM by KiNativ Profiling analysis relative to control; format: cell-based
[7] = biological target: Proto-oncogene tyrosine-protein kinase Src (Homo sapiens, UniProt P12931); experiment: Inhibition of SRC Lys1 labeling site in human A-375 cells at 0.5 uM by KiNativ Profiling analysis relative to control; format: cell-based
Chain of Proto-oncogene tyrosine-protein kinase Src (P12931 2-536 limits assumed): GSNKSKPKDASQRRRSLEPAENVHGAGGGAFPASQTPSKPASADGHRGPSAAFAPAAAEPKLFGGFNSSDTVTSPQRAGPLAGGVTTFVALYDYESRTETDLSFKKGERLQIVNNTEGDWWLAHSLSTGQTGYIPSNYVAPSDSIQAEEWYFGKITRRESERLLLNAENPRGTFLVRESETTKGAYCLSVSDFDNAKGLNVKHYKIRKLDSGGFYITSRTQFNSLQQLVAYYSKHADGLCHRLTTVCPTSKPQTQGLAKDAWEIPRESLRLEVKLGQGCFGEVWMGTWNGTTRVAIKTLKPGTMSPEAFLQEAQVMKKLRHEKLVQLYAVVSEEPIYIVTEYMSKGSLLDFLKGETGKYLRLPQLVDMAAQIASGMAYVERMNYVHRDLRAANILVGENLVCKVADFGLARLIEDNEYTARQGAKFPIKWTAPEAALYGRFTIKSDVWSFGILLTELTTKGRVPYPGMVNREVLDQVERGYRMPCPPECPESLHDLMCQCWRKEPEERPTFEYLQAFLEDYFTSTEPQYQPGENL

[8] = biological target: T2, Aurora kinase C (Homo sapiens) (UniProt Q9UQB9); experiment: Inhibition of AurC ATP Loop labeling site in human A-375 cells at 0.05 uM by KiNativ Profiling analysis relative to control; format: cell-based
T2 sequence (whole entry): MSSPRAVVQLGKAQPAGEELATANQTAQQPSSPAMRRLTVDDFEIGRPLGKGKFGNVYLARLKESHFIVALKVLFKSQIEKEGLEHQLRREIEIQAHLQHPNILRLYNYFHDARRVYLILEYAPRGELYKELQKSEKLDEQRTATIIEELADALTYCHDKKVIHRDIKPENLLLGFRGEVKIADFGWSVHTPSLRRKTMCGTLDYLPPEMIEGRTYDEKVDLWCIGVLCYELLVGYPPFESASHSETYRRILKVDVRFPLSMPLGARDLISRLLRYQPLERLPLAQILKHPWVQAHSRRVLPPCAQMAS

[9] = biological target: T3, Mitogen-activated protein kinase kinase kinase 3 (Homo sapiens) (UniProt Q99759); experiment: Inhibition of MAP3K3 Lys1 labeling site in human A-375 cells at 0.05 uM by KiNativ Profiling analysis relative to control; format: cell-based
T3 sequence (whole entry): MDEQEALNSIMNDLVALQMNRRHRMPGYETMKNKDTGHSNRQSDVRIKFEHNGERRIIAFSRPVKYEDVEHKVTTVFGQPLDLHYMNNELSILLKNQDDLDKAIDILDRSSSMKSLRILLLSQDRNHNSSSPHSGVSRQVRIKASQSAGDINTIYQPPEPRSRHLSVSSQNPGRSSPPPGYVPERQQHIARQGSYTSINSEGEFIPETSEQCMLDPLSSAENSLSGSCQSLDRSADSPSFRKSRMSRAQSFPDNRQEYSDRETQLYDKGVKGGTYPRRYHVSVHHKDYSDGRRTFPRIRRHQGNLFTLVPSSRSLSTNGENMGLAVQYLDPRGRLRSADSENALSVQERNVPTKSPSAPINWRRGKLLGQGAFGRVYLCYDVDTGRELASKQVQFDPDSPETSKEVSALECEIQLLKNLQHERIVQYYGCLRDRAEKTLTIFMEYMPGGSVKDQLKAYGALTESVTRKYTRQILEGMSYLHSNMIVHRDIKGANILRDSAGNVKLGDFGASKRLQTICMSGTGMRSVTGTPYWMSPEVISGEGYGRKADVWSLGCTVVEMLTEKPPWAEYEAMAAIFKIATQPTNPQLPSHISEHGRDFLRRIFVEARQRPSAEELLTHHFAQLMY

[10] = biological target: Dual specificity mitogen-activated protein kinase kinase 1 (Homo sapiens) (UniProt Q02750); experiment: Inhibition of MAP2K1 Lys2 labeling site harbouring DVKPSNILVNSR in human A-375 cells at 0.5 uM by KiNativ Profiling analysis relative to control; format: cell-based
Chain of Dual specificity mitogen-activated protein kinase kinase 1 (Homo sapiens) (Q02750 whole entry): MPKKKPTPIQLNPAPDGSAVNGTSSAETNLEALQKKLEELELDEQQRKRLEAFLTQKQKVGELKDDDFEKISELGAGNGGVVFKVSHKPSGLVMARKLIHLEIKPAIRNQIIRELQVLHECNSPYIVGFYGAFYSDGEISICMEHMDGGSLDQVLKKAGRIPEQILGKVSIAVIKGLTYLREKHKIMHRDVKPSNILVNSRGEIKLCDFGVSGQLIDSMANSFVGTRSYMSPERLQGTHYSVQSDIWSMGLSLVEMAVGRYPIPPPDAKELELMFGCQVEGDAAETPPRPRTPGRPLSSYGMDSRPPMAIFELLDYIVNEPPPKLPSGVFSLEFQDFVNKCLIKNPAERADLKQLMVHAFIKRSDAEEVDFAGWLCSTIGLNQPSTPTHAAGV

[11] = biological target: Mitogen-activated protein kinase kinase kinase 20 (Homo sapiens, UniProt Q9NYL2); experiment: Inhibition of ZAK Lys1 labeling site in human Huh-7 cell lysate at 1 uM by KiNativ Profiling analysis relative to control; format: subcellular
Chain of Mitogen-activated protein kinase kinase kinase 20 (Q9NYL2 2-800 limits assumed): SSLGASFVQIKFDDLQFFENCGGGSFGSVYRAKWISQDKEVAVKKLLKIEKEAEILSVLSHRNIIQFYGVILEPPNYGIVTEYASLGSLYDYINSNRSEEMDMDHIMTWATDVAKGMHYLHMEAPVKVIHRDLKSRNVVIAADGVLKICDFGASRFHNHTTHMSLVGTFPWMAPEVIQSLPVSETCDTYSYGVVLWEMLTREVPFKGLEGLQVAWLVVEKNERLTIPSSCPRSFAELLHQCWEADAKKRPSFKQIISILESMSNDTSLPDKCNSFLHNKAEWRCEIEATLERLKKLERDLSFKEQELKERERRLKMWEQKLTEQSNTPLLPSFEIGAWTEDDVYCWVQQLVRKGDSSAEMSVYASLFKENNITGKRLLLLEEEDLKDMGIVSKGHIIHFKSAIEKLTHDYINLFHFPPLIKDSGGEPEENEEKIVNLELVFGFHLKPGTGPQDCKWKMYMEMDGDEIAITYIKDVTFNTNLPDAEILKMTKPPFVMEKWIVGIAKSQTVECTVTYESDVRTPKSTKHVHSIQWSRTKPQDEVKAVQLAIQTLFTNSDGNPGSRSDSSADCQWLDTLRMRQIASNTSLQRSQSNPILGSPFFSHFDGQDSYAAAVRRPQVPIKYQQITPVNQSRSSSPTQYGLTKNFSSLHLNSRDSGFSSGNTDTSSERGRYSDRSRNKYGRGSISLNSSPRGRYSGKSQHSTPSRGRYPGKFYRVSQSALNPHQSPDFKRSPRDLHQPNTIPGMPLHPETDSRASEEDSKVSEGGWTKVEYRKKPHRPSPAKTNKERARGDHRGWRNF

Chain of Serine/threonine-protein kinase 24 (Homo sapiens) (Q9Y6E0 whole entry, looked up): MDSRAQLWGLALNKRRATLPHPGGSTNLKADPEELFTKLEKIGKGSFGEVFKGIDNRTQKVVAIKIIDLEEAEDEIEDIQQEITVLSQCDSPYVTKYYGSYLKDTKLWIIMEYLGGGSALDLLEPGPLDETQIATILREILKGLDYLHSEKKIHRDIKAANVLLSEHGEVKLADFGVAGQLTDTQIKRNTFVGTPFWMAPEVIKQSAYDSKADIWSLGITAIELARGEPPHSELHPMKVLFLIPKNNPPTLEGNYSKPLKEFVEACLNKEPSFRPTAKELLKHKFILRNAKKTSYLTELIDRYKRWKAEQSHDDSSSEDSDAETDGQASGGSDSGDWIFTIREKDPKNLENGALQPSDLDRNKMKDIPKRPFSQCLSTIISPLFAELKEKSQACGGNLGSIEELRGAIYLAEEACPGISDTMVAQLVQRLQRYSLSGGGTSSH

CCN1CCN(Cc2ccc(NC(=O)c3ccc(C)c(Oc4ccnc5[nH]ccc45)c3)cc2C(F)(F)F)CC1
inhibition [1]: 35.1% | inhibition [2]: -4.8% | inhibition [3]: -4.7% | inhibition [4]: 6.9% | inhibition [5]: 5.4% | inhibition [6]: 77.9% | inhibition [7]: 77.2% | inhibition [8]: 32.5% | inhibition [9]: 16.7% | inhibition [10]: -3.9%

CNc1cc(Oc2cc(C(=O)Nc3cc(-n4cnc(C)c4)cc(C(F)(F)F)c3)ccc2C)ncn1
inhibition [11]: 43.6%

CNc1cc(Oc2cc(C(=O)Nc3cc(N4CCN(C)CC4)cc(C(F)(F)F)c3)ccc2C)ncn1
inhibition [11]: 31.8%

CCN1CCN(Cc2ccc(NC(=O)c3ccc(C)c(/C=C/c4cnc5[nH]ccc5c4OC)c3)cc2C(F)(F)F)CC1
inhibition [1]: 13.7% | inhibition [2]: 11.8% | inhibition [3]: 1.4% | inhibition [4]: -4.3% | inhibition [5]: -0.9% | inhibition [6]: 74.9% | inhibition [7]: 72.5% | inhibition [8]: 14.1% | inhibition [9]: 31% | inhibition [10]: 1.8%

Reference: ChEMBL document CHEMBL5696442, “Discovery of type II inhibitors of TGFβ-activated kinase 1 (TAK1) and mitogen-activated protein kinase kinase kinase kinase 2 (MAP4K2)” (J Med Chem, 2015)
